Read-outs that look alike come from different tables or passages of the source.
Tests used:
KRAS G12S = KRAS G12S (Homo sapiens, UniProt P01116+P62937, G12S); assay: Ras-Raf disruption/FRET/MOA assay, KRAS G12S; type: biochemical; conditions: disruption of BRAF RBD binding, with Cyclophilin A; read-out: KRAS G12S FRET IC50
Procedure, shortened: (§1)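 His6-KRAS-GMPPNP (12.5 nM) was combined with tagless Cyclophilin A (25 μM) and GST-BRAF^RBD (50 nM) in pH 7.3 HEPES buffer with NaCl, MgCl2, Tween20 and BSA. Compound was tested as a 10-point 3-fold series from 30 μM final, 3 h at 25° C. Disruption was read as a drop in TR-FRET ratio versus DMSO.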

NRAS G12C = biological target: T1, NRAS G12C (Homo sapiens, UniProt P01111+P62937, G12C); assay: Ras-Raf disruption/FRET/MOA assay, NRAS G12C; type: biochemical
T1 construct: His6
T1 sequence (P01111 whole entry G12C): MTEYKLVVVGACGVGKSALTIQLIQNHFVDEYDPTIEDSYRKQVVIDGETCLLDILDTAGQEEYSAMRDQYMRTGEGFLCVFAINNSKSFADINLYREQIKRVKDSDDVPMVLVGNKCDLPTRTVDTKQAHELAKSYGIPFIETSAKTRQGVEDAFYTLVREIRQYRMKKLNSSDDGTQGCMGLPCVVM
T1 sequence (P62937 whole entry): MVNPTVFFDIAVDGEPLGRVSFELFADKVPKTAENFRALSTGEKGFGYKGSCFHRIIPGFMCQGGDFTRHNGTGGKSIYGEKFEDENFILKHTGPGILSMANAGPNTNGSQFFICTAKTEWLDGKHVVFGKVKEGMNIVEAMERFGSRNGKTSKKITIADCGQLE
Procedure, shortened: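 Disruption of Ras:RAF binding was read as a drop in TR-FRET ratio versus DMSO controls. The buffer was 25 mM HEPES pH 7.3, 0.002% Tween20, 0.1% BSA, 100 mM NaCl and 5 mM MgCl2. Compounds were tested as a 10-point 3-fold dilution series from 30 μM. Detection used 10 nM anti-His Eu-W1024 and 50 nM anti-GST allophycocyanin.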

KRAS G12C = KRAS G12C (Homo sapiens, UniProt P01116+P62937, G12C); assay: Ras-Raf disruption/FRET/MOA assay, KRAS G12C; type: biochemical; conditions: disruption of BRAF RBD binding, with Cyclophilin A; read-out: KRAS G12C FRET IC50
Sequence of KRAS G12C (P01116 1-169 isoform P01116-2 G12C limits assumed): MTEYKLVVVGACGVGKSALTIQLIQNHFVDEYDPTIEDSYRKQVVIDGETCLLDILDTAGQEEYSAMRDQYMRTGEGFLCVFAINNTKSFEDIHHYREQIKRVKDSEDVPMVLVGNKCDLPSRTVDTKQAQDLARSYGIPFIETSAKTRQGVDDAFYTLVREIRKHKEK
Sequence of KRAS G12C (P62937 whole entry): as the sequence (P62937 whole entry) above
Procedure, shortened: as §1

KRAS G13D = KRAS G13D (Homo sapiens, UniProt P01116+P62937, G13D); assay: Ras-Raf disruption/FRET/MOA assay, KRAS G13D; type: biochemical; conditions: disruption of BRAF RBD binding, with Cyclophilin A; read-out: KRAS G13D FRET IC50
Sequence of KRAS G13D (P01116 1-169 isoform P01116-2 G13D limits assumed): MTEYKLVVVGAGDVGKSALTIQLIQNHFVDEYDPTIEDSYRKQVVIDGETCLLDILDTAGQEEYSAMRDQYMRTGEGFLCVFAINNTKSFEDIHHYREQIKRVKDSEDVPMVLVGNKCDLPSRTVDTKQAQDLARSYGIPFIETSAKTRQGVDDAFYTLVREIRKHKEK
Sequence of KRAS G13D (P62937 whole entry): as the sequence (P62937 whole entry) above
Procedure, shortened: as §1

KRAS G12V = KRAS G12V (Homo sapiens, UniProt P01116+P62937, G12V); assay: Ras-Raf disruption/FRET/MOA assay, KRAS G12V; type: biochemical; conditions: disruption of BRAF RBD binding, with Cyclophilin A; read-out: KRAS G12V FRET IC50
Sequence of KRAS G12V (P01116 1-169 isoform P01116-2 G12V limits assumed): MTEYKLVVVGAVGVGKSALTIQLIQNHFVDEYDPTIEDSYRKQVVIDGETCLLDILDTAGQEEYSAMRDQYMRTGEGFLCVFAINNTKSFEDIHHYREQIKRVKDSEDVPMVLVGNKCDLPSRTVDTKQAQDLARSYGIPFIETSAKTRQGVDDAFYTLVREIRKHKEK
Sequence of KRAS G12V (P62937 whole entry): as the sequence (P62937 whole entry) above
Procedure, shortened: as §1

NRAS WT = biological target: T2, NRAS WT (Homo sapiens, UniProt P01111+P62937); assay: Ras-Raf disruption/FRET/MOA assay, NRAS WT; type: biochemical
T2 construct: His6
T2 sequence (P01111 whole entry): as the sequence (P01111 whole entry G12C) above, with C12G counted along it
T2 sequence (P62937 whole entry): as the sequence (P62937 whole entry) above
Excerpt: (§2) Disruption of B-Raf Ras-Binding Domain (BRAF^RBD) Interaction with K-Ras by Compounds of the Invention (Also Called a FRET Assay or an MOA Assay)
(§3) Note—The following protocol describes a procedure for monitoring disruption of K-Ras G12C (GMP-PNP) binding to BRAF^RBD by a compound of the invention. This protocol may also be executed substituting other Ras proteins or nucleotides, such as K-Ras G12D and K-Ras G13D.
(§4) The purpose of this biochemical assay was to measure the ability of test compounds to facilitate ternary complex formation between a nucleotide-loaded K-Ras isoform and Cyclophilin A; the resulting ternary complex disrupts binding to a BRAF^RBD construct, inhibiting K-Ras signaling through a RAF effector.
(§5) In assay buffer containing 25 mM HEPES pH 7.3, 0.002% Tween20, 0.1% BSA, 100 mM NaCl and 5 mM MgCl2, tagless Cyclophilin A, His6-K-Ras-GMPPNP, and GST-BRAF^RBD were combined in a 384-well assay plate at final concentrations of 25 μM, 12.5 nM, and 50 nM, respectively. Compound was present in plate wells as a 10-point 3-fold dilution series starting at a final concentration of 30 μM. After incubation at 25° C. for 3 hours, a mixture of anti-His Eu-W1024 and anti-GST allophycocyanin was then added to assay sample wells at final concentrations of 10 nM and 50 nM, respectively, and the reaction incubated for an additional 1.5 hours. […] Compounds that facilitate disruption of a K-Ras:RAF complex were identified as those eliciting a decrease in the TR-FRET ratio relative to DMSO control wells.

NRAS Q61R = biological target: T3, NRAS Q61R (Homo sapiens, UniProt P01111+P62937, Q61R); assay: Ras-Raf disruption/FRET/MOA assay, NRAS Q61R; type: biochemical
T3 construct: His6
T3 sequence (P01111 whole entry Q61R): as the sequence (P01111 whole entry G12C) above, with C12G, Q61R counted along it
T3 sequence (P62937 whole entry): as the sequence (P62937 whole entry) above
Excerpt: as §2, §3, §4, §5

AsPC-1 (K-Ras G12D) [1] = assay: CellTiter-Glo cell viability assay, AsPC-1; type: cell-based; conditions: Homo sapiens, ASPC1, 120 h, read-out: AsPC-1 Cell Viability IC50
Procedure, shortened: (§6)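 Luminescence from CellTiter-Glo serves as the viability read-out after cells are treated with compound for 5 days. Each well's signal is divided by the DMSO average and multiplied by 100, and curves are fitted by four-parameter logistic regression.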

NCI-H358 (K-Ras G12C) = assay: CellTiter-Glo cell viability assay, H358; type: cell-based; conditions: Homo sapiens, NCI-H358, 120 h, NCI-H358, K-Ras G12C, 5-day treatment; read-out: H358 Cell Viability IC50
Procedure, shortened: as §6

NRAS Q61K = biological target: T4, NRAS Q61K (Homo sapiens, UniProt P01111+P62937, Q61K); assay: Ras-Raf disruption/FRET/MOA assay, NRAS Q61K; type: biochemical
T4 construct: His6
T4 sequence (P01111 whole entry Q61K): as the sequence (P01111 whole entry G12C) above, with C12G, Q61K counted along it
T4 sequence (P62937 whole entry): as the sequence (P62937 whole entry) above
Excerpt: as §2, §3, §4, §5

KRAS WT = KRAS WT (Homo sapiens, UniProt P01116+P62937); assay: Ras-Raf disruption/FRET/MOA assay, KRAS WT; type: biochemical; conditions: disruption of BRAF RBD binding, with Cyclophilin A; read-out: KRAS WT FRET IC50
Sequence of KRAS WT (P01116 1-169 isoform P01116-2 limits assumed): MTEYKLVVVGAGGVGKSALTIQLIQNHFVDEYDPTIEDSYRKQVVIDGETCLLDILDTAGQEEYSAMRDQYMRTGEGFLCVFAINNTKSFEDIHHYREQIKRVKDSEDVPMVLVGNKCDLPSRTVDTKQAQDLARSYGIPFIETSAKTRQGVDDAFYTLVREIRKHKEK
Sequence of KRAS WT (P62937 whole entry): as the sequence (P62937 whole entry) above
Procedure, shortened: as §1

KRAS G13C = KRAS G13C (Homo sapiens, UniProt P01116+P62937, G13C); assay: Ras-Raf disruption/FRET/MOA assay, KRAS G13C; type: biochemical; conditions: disruption of BRAF RBD binding, with Cyclophilin A; read-out: KRAS G13C FRET IC50
Sequence of KRAS G13C (P01116 1-169 isoform P01116-2 G13C limits assumed): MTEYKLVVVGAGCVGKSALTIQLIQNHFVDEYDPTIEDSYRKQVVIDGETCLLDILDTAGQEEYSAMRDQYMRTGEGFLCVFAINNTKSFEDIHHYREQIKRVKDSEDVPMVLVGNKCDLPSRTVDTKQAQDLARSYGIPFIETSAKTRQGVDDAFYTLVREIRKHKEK
Sequence of KRAS G13C (P62937 whole entry): as the sequence (P62937 whole entry) above
Procedure, shortened: as §1

KRAS Q61H = KRAS Q61H (Homo sapiens, UniProt P01116+P62937, Q61H); assay: Ras-Raf disruption/FRET/MOA assay, KRAS Q61H; type: biochemical; conditions: KRAS Q61H; read-out: KRAS Q61H FRET data IC50
Sequence of KRAS Q61H (P01116 1-169 isoform P01116-2 Q61H limits assumed): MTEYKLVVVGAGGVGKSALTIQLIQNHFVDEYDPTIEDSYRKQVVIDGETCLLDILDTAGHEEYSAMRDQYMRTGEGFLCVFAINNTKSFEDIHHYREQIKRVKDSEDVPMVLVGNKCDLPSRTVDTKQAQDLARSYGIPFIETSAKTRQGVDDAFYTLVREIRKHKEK
Sequence of KRAS Q61H (P62937 whole entry): as the sequence (P62937 whole entry) above
Excerpt: as §2, §3, §4, §5

KRAS G12D = KRAS G12D (Homo sapiens, UniProt P01116+P62937, G12D); assay: Ras-Raf disruption/FRET/MOA assay, KRAS G12D; type: biochemical; conditions: disruption of BRAF RBD binding, with Cyclophilin A; read-out: KRAS G12D FRET IC50
Sequence of KRAS G12D (P01116 1-169 isoform P01116-2 G12D limits assumed): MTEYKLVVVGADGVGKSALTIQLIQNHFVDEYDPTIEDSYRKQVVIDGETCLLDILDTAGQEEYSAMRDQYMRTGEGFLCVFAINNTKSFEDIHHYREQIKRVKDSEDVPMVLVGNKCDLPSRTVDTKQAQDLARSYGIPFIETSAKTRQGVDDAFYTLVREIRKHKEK
Sequence of KRAS G12D (P62937 whole entry): as the sequence (P62937 whole entry) above
Procedure, shortened: as §1

AsPC-1 (K-Ras G12D) [2] = assay: Potency assay: pERK in AsPC-1 cells; type: cell-based; conditions: Homo sapiens
[3] = NRAS G12C, read-out: NRAS G12C FRET data IC50
[4] = NRAS WT, read-out: NRAS WT FRET data IC50
[5] = NRAS Q61R, read-out: NRAS Q61R FRET data IC50
[6] = AsPC-1, K-Ras G12D, 5-day treatment
[7] = NRAS Q61K, read-out: NRAS Q61K FRET data IC50
[8] = ASPC1, AsPC-1 cells, K-Ras G12D, read-out: pERK EC50 (AsPC-1 KRAS G12D)

Sequence of KRAS G12S (P01116 1-169 isoform P01116-2 G12S limits assumed): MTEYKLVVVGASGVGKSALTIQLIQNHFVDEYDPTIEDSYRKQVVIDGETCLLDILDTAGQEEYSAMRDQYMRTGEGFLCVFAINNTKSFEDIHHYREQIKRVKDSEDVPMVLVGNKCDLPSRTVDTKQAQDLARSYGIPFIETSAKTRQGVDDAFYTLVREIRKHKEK
Sequence of KRAS G12S (P62937 whole entry): as the sequence (P62937 whole entry) above

Work on `CCn1c(-c2cccnc2[C@H](C)OC)c2c3cc(ccc31)-c1csc(n1)C[C@H](NC(=O)[C@H](C1CCCC1)N1CC[C@]3(CCN(C(=O)[C@@H]4N[C@@H]4C4CC4)C3)C1=O)C(=O)N1CCC[C@H](N1)C(=O)OCC(C)(C)C2` [Compound 234] yielded an IC50 (KRAS G12S) of 1 to 10 µM, an IC50 (NRAS G12C; [3]) of 1 to 10 µM and an IC50 (KRAS G12C) of 0.1 to 1 µM. For the same compound, the IC50 (KRAS G13D) was greater than 10 µM, the IC50 (KRAS G12V) was 1 to 10 µM and the IC50 (NRAS WT; [4]) was 1 to 10 µM. It also gave an IC50 (NRAS Q61R; [5]) of 1 to 10 µM, an IC50 (AsPC-1 (K-Ras G12D) [1]; [6]) of 0.1 to 1 µM and an IC50 (NCI-H358 (K-Ras G12C)) of 0.01 to 0.1 µM. For the same compound, the IC50 (NRAS Q61K; [7]) was 1 to 10 µM, the IC50 (KRAS WT) was 1 to 10 µM and the IC50 (KRAS G13C) was 1 to 10 µM. It also gave an IC50 (KRAS Q61H) of 1 to 10 µM and an IC50 (KRAS G12D) of 1 to 10 µM.

For `CCn1c(-c2cccnc2[C@H](C)OC)c2c3cc(ccc31)-c1cc(O)cc(c1)C[C@H](NC(=O)C(C(C)C)N(C)C(=O)[C@@]1(C)CCCN1C(=O)[C@H]1CN1)C(=O)N1CCC[C@H](N1)C(=O)OCC(C)(C)C2` (stereo partly drawn) [Compound 240], the IC50 (NRAS G12C; NRAS G12C FRET data IC50, NRAS G12C) was 0.1 to 1 µM, the IC50 (NRAS WT) was 1 to 10 µM and the IC50 (NRAS Q61R) was 1 to 10 µM. The IC50 (AsPC-1 (K-Ras G12D) [1]; [6]) was 1 to 10 µM, the IC50 (NRAS Q61K) was greater than 10 µM and the EC50 (AsPC-1 (K-Ras G12D) [2]; [8]) was less than 5 µM.

`CCn1c(-c2cccnc2[C@H](C)OC)c2c3cc(ccc31)-c1cc(O)cc(c1)C[C@H](NC(=O)[C@H](C(C)C)N1CCCC3(CN(C(=O)[C@@H]4CN4)C3)C1=O)C(=O)N1CCC[C@H](N1)C(=O)OCC(C)(C)C2` [Compound 306] was tested, and the IC50 (KRAS G12S) was 0.01 to 0.1 µM, the IC50 (NRAS G12C; [3]) was less than 0.01 µM and the IC50 (KRAS G12C) was less than 0.01 µM. For the same compound, the IC50 (KRAS G13D) was 0.01 to 0.1 µM, the IC50 (KRAS G12V) was 0.01 to 0.1 µM and the IC50 (NRAS WT; [4]) was 0.01 to 0.1 µM. The IC50 (NRAS Q61R; [5]) was 0.1 to 1 µM, the IC50 (AsPC-1 (K-Ras G12D) [1]; [6]) was 1 to 10 µM and the IC50 (NRAS Q61K; [7]) was 0.1 to 1 µM. For the same compound, the EC50 (AsPC-1 (K-Ras G12D) [2]; [8]) was less than 5 µM, the IC50 (KRAS WT) was 0.01 to 0.1 µM and the IC50 (KRAS G13C) was 0.01 to 0.1 µM. For the same compound, the IC50 (KRAS Q61H) was 0.01 to 0.1 µM and the IC50 (KRAS G12D) was 0.1 to 1 µM.

For `CCn1c(-c2cnccc2COC)c2c3cc(ccc31)-c1cc(O)cc(c1)C[C@H](NC(=O)[C@H](C(C)C)N(C)C(=O)CN(C)C(=O)[C@H]1CN1S(C)(=O)=O)C(=O)N1CCC[C@H](N1)C(=O)OCC(C)(C)C2` (stereo partly drawn) [Example 36, (2R)—N-(2-(((2S)-1-(((6^3S,4S)-1^1-ethyl-2^5-hydroxy-1^2-(4-(methoxymethyl)pyridin-3-yl)-10,10-dimethyl-5,7-dioxo-6^1,6^2,6^3,6^4,6^5,6^6-hexahydro-1^1H-8-oxa-1(5,3)-indola-6(1,3)-pyridazina-2(1,3)-benzenacycloundecaphane-4-yl)amino)-3-methyl-1-oxobutan-2-yl)(methyl)amino)-2-oxoethyl)-N-methyl-1-(methylsulfonyl)aziridine-2-carboxamide], the IC50 (KRAS G12S) was 0.01 to 0.1 µM, the IC50 (NRAS G12C; [3]) was 0.01 to 0.1 µM and the IC50 (KRAS G12C) was 0.01 to 0.1 µM. It also gave an IC50 (KRAS G13D) of 0.1 to 1 µM, an IC50 (KRAS G12V) of 0.01 to 0.1 µM and an IC50 (NRAS WT; [4]) of 0.1 to 1 µM. For the same compound, the IC50 (NRAS Q61R; [5]) was 0.1 to 1 µM, the IC50 (AsPC-1 (K-Ras G12D) [1]) was greater than 10 µM and the IC50 (NRAS Q61K; [7]) was 0.1 to 1 µM. For the same compound, the EC50 (AsPC-1 (K-Ras G12D) [2]; ASPC1, read-out: pERK EC50 (AsPC-1 KRAS G12D)) was less than 5 µM, the IC50 (KRAS WT) was 0.01 to 0.1 µM and the IC50 (KRAS G13C) was 0.01 to 0.1 µM. For the same compound, the IC50 (KRAS Q61H) was 0.01 to 0.1 µM and the IC50 (KRAS G12D) was 0.1 to 1 µM.
